{
  "source": "paper PMC10272112",
  "about": "(Nature Communications, 2023)",
  "target": "T1, HDAC6 (Homo sapiens, UniProt Q9UBN7)",
  "T1 sequence (Q9UBN7 1-1215)": "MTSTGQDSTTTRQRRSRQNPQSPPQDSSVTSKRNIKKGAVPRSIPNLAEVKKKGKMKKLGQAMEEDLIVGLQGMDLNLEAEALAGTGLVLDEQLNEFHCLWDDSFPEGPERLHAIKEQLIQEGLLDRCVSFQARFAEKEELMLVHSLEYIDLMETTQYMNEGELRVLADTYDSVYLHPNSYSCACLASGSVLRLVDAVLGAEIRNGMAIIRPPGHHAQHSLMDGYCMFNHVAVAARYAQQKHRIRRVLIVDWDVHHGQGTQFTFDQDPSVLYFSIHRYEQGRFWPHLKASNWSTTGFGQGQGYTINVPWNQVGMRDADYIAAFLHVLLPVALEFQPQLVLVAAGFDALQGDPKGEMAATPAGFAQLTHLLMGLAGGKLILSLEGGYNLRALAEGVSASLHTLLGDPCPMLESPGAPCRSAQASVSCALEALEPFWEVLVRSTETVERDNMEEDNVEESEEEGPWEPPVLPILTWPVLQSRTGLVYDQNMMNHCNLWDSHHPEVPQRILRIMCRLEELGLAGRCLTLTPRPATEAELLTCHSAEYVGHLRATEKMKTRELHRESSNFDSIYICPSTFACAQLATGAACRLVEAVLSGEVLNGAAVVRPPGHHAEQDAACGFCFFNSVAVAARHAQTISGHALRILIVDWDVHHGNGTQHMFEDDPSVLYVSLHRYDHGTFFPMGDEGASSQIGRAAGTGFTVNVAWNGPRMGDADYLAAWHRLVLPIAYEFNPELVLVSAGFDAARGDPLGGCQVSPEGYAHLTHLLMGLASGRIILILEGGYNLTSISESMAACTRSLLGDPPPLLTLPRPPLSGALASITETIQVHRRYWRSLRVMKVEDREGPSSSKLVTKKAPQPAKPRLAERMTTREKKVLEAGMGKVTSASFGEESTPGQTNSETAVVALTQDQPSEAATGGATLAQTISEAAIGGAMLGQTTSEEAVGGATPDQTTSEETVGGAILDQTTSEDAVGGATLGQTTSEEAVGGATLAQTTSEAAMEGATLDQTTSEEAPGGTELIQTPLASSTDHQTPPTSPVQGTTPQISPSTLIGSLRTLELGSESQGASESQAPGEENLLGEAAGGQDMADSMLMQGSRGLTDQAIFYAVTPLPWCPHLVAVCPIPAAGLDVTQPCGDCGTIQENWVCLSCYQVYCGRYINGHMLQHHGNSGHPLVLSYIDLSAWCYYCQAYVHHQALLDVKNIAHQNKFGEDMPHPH",
  "assay": "Chemoproteomic competition pulldown assay",
  "format": "binding",
  "parameters": "endogenous in cells; host or cells: SW620, MV4-11, A549 lysates",
  "method": "To identify proteins directly bound by lipoic acid, we employed a chemoproteomic competition assay. Briefly, (R/S)-LA was immobilized on sepharose beads via an amidation reaction to form an affinity matrix (abbreviated as iL; Fig. 1a). This affinity matrix can be incubated with cell lysate to pull down potential LA or LM target proteins and identify these targets via bottom-up proteomics. In a competition assay, free LA or LM were incubated with lysate at different concentrations before pulling down and quantifying target proteins. […] (Fig. 1b, see “Methods” for details). […] The lysate buffer used in this assay contains 1 mM DTT to mimic the intracellular reductive milieu and to reduce lipoic acid and LM. […] Additional competition assays performed in lung adenocarcinoma cell A549 lysate also identified HDAC1, HDAC2, and HDAC6 as targets (Supplementary Fig. 1b). Amongst the three cell lines tested, HDACs were the only confidently identified targets across the 1500–3000 proteins quantified in these assays. […] We validated the results by analogous pulldown competition assays using two other affinity matrices prepared via the immobilization of either the HDAC inhibitor Quisinostat (iQ) and an analog of the class IIa HDAC inhibitor Bürli’s 31[14] (iC)[12]. We have previously shown that these affinity matrices specifically bind to the active sites of HDACs and have used them for HDACi selectivity profiling. Indeed, binding of (R/S)-LA and (R/S)-LM to HDAC1, HDAC2, HDAC3, HDAC6, and, to a lesser extent, HDAC8 was confirmed in these assays (Supplementary Fig. 1c, d). No binding to class IIa HDACs or the recently discovered common HDAC inhibitor off-target MBLAC2 was observed (Supplementary Fig. 1e)[12]. […] This observation might reflect electrostatic repulsion between the HDAC10 active site gate-keeper glutamic acid residues[15],[16] and the terminal carboxylic acid of LA.\nTo assess the degree of protein depletion from lysates by the affinity matrix, a second pulldown (PDPD) with fresh beads was performed using the unbound protein fraction from the vehicle control flow through. The beads were washed (1 × 1 mL of lysis buffer without inhibitors and only 0.4% Igepal, 2 × 2 mL of lysis buffer without inhibitors and only 0.2% Igepal), and captured proteins were denatured with 8 M urea buffer, alkylated with 55 mM chloroacetamide and digested with Trypsin according to standard procedures. The resulting peptides were desalted on a C18 filter plate (Sep-Pak® tC18 µElution Plate, Waters), vacuum dried, and stored at −20 °C until LC–MSMS measurement.\nFor the competition assays, relative binding was calculated based on the protein intensity ratio to the DMSO control for every single inhibitor concentration. EC50 values were derived from a four-parameter log-logistic regression with variable slope (constrain: bottom > 0). The obtained EC50 values were multiplied with a protein-dependent correction factor (cf), resulting in the apparent Kd value (Kd^app). The correction factor is determined by calculating the ratio of the protein intensity of two consecutive pulldowns of the vehicle control sample[13]. Targets of the inhibitors were annotated manually according to published procedures[12],[46],[47]. […] Additionally, the number of unique peptides and MSMS counts per condition were taken into account. Positive target binding across several independent experiments performed with different cell lysates further substantiated our confidence for a true positive drug-target binding event.",
  "key": {"[1]": {"details": "iL, SW620, read-out: pKdapp (converted)"}, "[2]": {"details": "iQ, SW620, read-out: pKdapp (converted)"}, "[3]": {"details": "iQ, SW620 lysate, log10 M -3.52288"}, "[4]": {"details": "iQ, SW620 lysate, log10 M -4.52288"}, "[5]": {"details": "iQ, SW620 lysate, log10 M -5.52288"}, "[6]": {"details": "iQ, SW620 lysate, log10 M -6.52288"}},
  "note": "Where two headings read alike, the source gives them in different places.",
  "data": [
    {"smiles": "O=C(O)CCCCC1CCSS1", "note": "(racemic) [(R/S)-LA, (R/S)-lipoic acid]", "values": [
      {"measurement": "Kd", "setting": "iL, A549, read-out: pKdapp (converted)", "value": 5.01, "unit": "µM"},
      {"measurement": "relative binding vs DMSO", "setting": "iL, A549 lysate, log10 M -4", "value": 0.05504},
      {"measurement": "relative binding vs DMSO", "setting": "iL, A549 lysate, log10 M -4.52288", "value": 0.1518},
      {"measurement": "relative binding vs DMSO", "setting": "iL, A549 lysate, log10 M -5", "value": 0.3845},
      {"measurement": "relative binding vs DMSO", "setting": "iL, A549 lysate, log10 M -5.52288", "value": 0.7285},
      {"measurement": "relative binding vs DMSO", "setting": "iL, A549 lysate, log10 M -6", "value": 0.9189},
      {"measurement": "relative binding vs DMSO", "setting": "iL, A549 lysate, log10 M -6.52288", "value": 1.088},
      {"measurement": "relative binding vs DMSO", "setting": "iL, A549 lysate, log10 M -7.52288", "value": 1.108},
      {"measurement": "relative binding vs DMSO", "setting": "iL, A549 lysate, log10 M -8", "value": 1.195},
      {"measurement": "relative binding vs DMSO", "setting": "iL, A549 lysate, log10 M -8.52288", "value": 0.9886},
      {"measurement": "Kd", "setting": "[1]", "value": 10, "unit": "µM"},
      {"measurement": "relative binding vs DMSO", "setting": "iL, SW620 lysate, log10 M -3.52288", "value": 0.1052},
      {"measurement": "relative binding vs DMSO", "setting": "iL, SW620 lysate, log10 M -4", "value": 0.1618},
      {"measurement": "relative binding vs DMSO", "setting": "iL, SW620 lysate, log10 M -4.52288", "value": 0.8697},
      {"measurement": "relative binding vs DMSO", "setting": "iL, SW620 lysate, log10 M -5", "value": 1.623},
      {"measurement": "relative binding vs DMSO", "setting": "iL, SW620 lysate, log10 M -5.52288", "value": 0.9452},
      {"measurement": "relative binding vs DMSO", "setting": "iL, SW620 lysate, log10 M -6", "value": 1.514},
      {"measurement": "relative binding vs DMSO", "setting": "iL, SW620 lysate, log10 M -6.52288", "value": 0.6952},
      {"measurement": "relative binding vs DMSO", "setting": "iL, SW620 lysate, log10 M -7", "value": 1.008},
      {"measurement": "Kd", "setting": "[2]", "value": 10, "unit": "µM"},
      {"measurement": "relative binding vs DMSO", "setting": "[3]", "value": 0.2137},
      {"measurement": "relative binding vs DMSO", "setting": "iQ, SW620 lysate, log10 M -4", "value": 0.2383},
      {"measurement": "relative binding vs DMSO", "setting": "[4]", "value": 0.4233},
      {"measurement": "relative binding vs DMSO", "setting": "iQ, SW620 lysate, log10 M -5", "value": 0.664},
      {"measurement": "relative binding vs DMSO", "setting": "[5]", "value": 0.8619},
      {"measurement": "relative binding vs DMSO", "setting": "iQ, SW620 lysate, log10 M -6", "value": 0.8804},
      {"measurement": "relative binding vs DMSO", "setting": "[6]", "value": 1.0379},
      {"measurement": "relative binding vs DMSO", "setting": "iQ, SW620 lysate, log10 M -7", "value": 0.9144}
    ]},
    {"smiles": "NC(=O)CCCCC1CCSS1", "note": "(racemic) [(R/S)-LM, (R/S)-lipoamide]", "values": [
      {"measurement": "relative binding vs DMSO", "setting": "iL, MV4-11 lysate, log10 M -3.52288", "value": 0.06003},
      {"measurement": "relative binding vs DMSO", "setting": "iL, MV4-11 lysate, log10 M -4", "value": 0.1375},
      {"measurement": "relative binding vs DMSO", "setting": "iL, MV4-11 lysate, log10 M -4.52288", "value": 0.3195},
      {"measurement": "relative binding vs DMSO", "setting": "iL, MV4-11 lysate, log10 M -5", "value": 0.763},
      {"measurement": "relative binding vs DMSO", "setting": "iL, MV4-11 lysate, log10 M -5.52288", "value": 0.7012},
      {"measurement": "relative binding vs DMSO", "setting": "iL, MV4-11 lysate, log10 M -6", "value": 0.776},
      {"measurement": "relative binding vs DMSO", "setting": "iL, MV4-11 lysate, log10 M -6.52288", "value": 0.9127},
      {"measurement": "relative binding vs DMSO", "setting": "iL, MV4-11 lysate, log10 M -7", "value": 0.9147},
      {"measurement": "Kd", "setting": "iL, MV4-11 lysate, read-out: Kd app", "value": 21, "unit": "µM"},
      {"measurement": "Kd", "setting": "iL, MV411, read-out: pKdapp (converted)", "value": 10, "unit": "µM"},
      {"measurement": "Kd", "setting": "[1]", "value": 15.8, "unit": "µM"},
      {"measurement": "Kd", "setting": "[2]", "value": 10, "unit": "µM"},
      {"measurement": "relative binding vs DMSO", "setting": "[3]", "value": 0.1855},
      {"measurement": "relative binding vs DMSO", "setting": "iQ, SW620 lysate, log10 M -4", "value": 0.2172},
      {"measurement": "relative binding vs DMSO", "setting": "[4]", "value": 0.4129},
      {"measurement": "relative binding vs DMSO", "setting": "iQ, SW620 lysate, log10 M -5", "value": 0.6644},
      {"measurement": "relative binding vs DMSO", "setting": "[5]", "value": 0.9409},
      {"measurement": "relative binding vs DMSO", "setting": "iQ, SW620 lysate, log10 M -6", "value": 1.062},
      {"measurement": "relative binding vs DMSO", "setting": "[6]", "value": 0.8866},
      {"measurement": "relative binding vs DMSO", "setting": "iQ, SW620 lysate, log10 M -7", "value": 0.9139}
    ]}
  ]
}
